# Patent US5530126A, “Process for the preparation of substituted 6-(pyrazol-3yl)-1,4-benzoxazin-3-ones” (Monsanto Company, priority 1994, dated 1996)
# What was measured:
# Type in all cases: in vivo
# [1] = system: Barnyardgrass; experiment: Post-emergence herbicide test; conditions: Echinochloa crus-galli, read-out: % plant inhibition (Bygr); for inhibition at 11210 g/ha: 11.21 kg/ha; for inhibition at 1120 g/ha: 1.12 kg/ha
# Outline: (§1)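 Greenhouse-raised seedlings and perennial propagule shoots, aged 2–3 weeks, receive an atomized spray at 10 psig. The solution or suspension carries roughly 0.4% emulsifier and is applied at 200 gallons/acre; injury is rated as % inhibition after about 11 days.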
# [2] = system: Indian Mustard; experiment: Post-emergence herbicide test; conditions: Brassica juncea, read-out: % plant inhibition (Inmu); for inhibition at 11210 g/ha: 11.21 kg/ha; for inhibition at 1120 g/ha: 1.12 kg/ha
# Outline: as §1
# [3] = system: Wild buckwheat; experiment: Post-emergence herbicide test; conditions: Fallopia convolvulus, read-out: % plant inhibition (Wibw); for inhibition at 11210 g/ha: 11.21 kg/ha; for inhibition at 1120 g/ha: 1.12 kg/ha
# Outline: as §1
# [4] = system: Annual bluegrass; experiment: Post-emergence herbicide test; conditions: read-out: % plant inhibition (Anbg); for inhibition at 11210 g/ha: 11.21 kg/ha; for inhibition at 1120 g/ha: 1.12 kg/ha
# Outline: as §1
# [5] = system: Seedling johnsongrass; experiment: Post-emergence herbicide test; conditions: Sorghum halepense, read-out: % plant inhibition (Sejg); for inhibition at 11210 g/ha: 11.21 kg/ha; for inhibition at 1120 g/ha: 1.12 kg/ha
# Outline: as §1
# [6] = system: Velvetleaf; experiment: Post-emergence herbicide test; conditions: Abutilon theophrasti, read-out: % plant inhibition (Vele); for inhibition at 11210 g/ha: 11.21 kg/ha; for inhibition at 1120 g/ha: 1.12 kg/ha
# Outline: as §1
# [7] = system: Cocklebur; experiment: Post-emergence herbicide test; conditions: Xanthium strumarium, read-out: % plant inhibition (Cobu); for inhibition at 11210 g/ha: 11.21 kg/ha; for inhibition at 1120 g/ha: 1.12 kg/ha
# Outline: as §1
# [8] = system: Morningglory; experiment: Post-emergence herbicide test; conditions: Ipomoea, read-out: % plant inhibition (Mogl); for inhibition at 11210 g/ha: 11.21 kg/ha; for inhibition at 1120 g/ha: 1.12 kg/ha
# Outline: as §1
# [9] = system: Downy Brome; experiment: Post-emergence herbicide test; conditions: Bromus tectorum, read-out: % plant inhibition (Dobr); for inhibition at 11210 g/ha: 11.21 kg/ha; for inhibition at 1120 g/ha: 1.12 kg/ha
# Outline: as §1
# [10] = system: Yellow nutsedge; experiment: Post-emergence herbicide test; conditions: Cyperus, read-out: % plant inhibition (Yens); for inhibition at 11210 g/ha: 11.21 kg/ha; for inhibition at 1120 g/ha: 1.12 kg/ha
# Outline: as §1
# [11] = system: Barnyardgrass; experiment: Pre-emergence herbicide test; conditions: Echinochloa crus-galli, read-out: % plant inhibition (Bygr); for inhibition at 11210 g/ha: 11.21 kg/ha; for inhibition at 1120 g/ha: 1.12 kg/ha
# Outline: (§2)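 Pre-emergence soil application: compound in acetone or water carrier sprayed onto seeded topsoil surface, overlaid with untreated soil. Pans kept on greenhouse bench, watered from below. Read-out % inhibition, ~11 days post-treatment.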
# [12] = system: Indian Mustard; experiment: Pre-emergence herbicide test; conditions: Brassica juncea, read-out: % plant inhibition (Inmu); for inhibition at 11210 g/ha: 11.21 kg/ha; for inhibition at 1120 g/ha: 1.12 kg/ha
# Outline: as §2
# [13] = system: Wild buckwheat; experiment: Pre-emergence herbicide test; conditions: Fallopia convolvulus, read-out: % plant inhibition (Wibw); for inhibition at 11210 g/ha: 11.21 kg/ha; for inhibition at 1120 g/ha: 1.12 kg/ha
# Outline: as §2
# [14] = system: Annual bluegrass; experiment: Pre-emergence herbicide test; conditions: read-out: % plant inhibition (Anbg); for inhibition at 11210 g/ha: 11.21 kg/ha; for inhibition at 1120 g/ha: 1.12 kg/ha
# Outline: as §2
# [15] = system: Seedling johnsongrass; experiment: Pre-emergence herbicide test; conditions: Sorghum halepense, read-out: % plant inhibition (Sejg); for inhibition at 11210 g/ha: 11.21 kg/ha; for inhibition at 1120 g/ha: 1.12 kg/ha
# Outline: as §2
# [16] = system: Velvetleaf; experiment: Pre-emergence herbicide test; conditions: Abutilon theophrasti, read-out: % plant inhibition (Vele); for inhibition at 11210 g/ha: 11.21 kg/ha; for inhibition at 1120 g/ha: 1.12 kg/ha
# Outline: as §2
# [17] = system: Cocklebur; experiment: Pre-emergence herbicide test; conditions: Xanthium strumarium, read-out: % plant inhibition (Cobu); for inhibition at 11210 g/ha: 11.21 kg/ha; for inhibition at 1120 g/ha: 1.12 kg/ha
# Outline: as §2
# [18] = system: Morningglory; experiment: Pre-emergence herbicide test; conditions: Ipomoea, read-out: % plant inhibition (Mogl); for inhibition at 11210 g/ha: 11.21 kg/ha; for inhibition at 1120 g/ha: 1.12 kg/ha
# Outline: as §2
# [19] = system: Downy Brome; experiment: Pre-emergence herbicide test; conditions: Bromus tectorum, read-out: % plant inhibition (Dobr); for inhibition at 11210 g/ha: 11.21 kg/ha; for inhibition at 1120 g/ha: 1.12 kg/ha
# Outline: as §2
# [20] = system: Yellow nutsedge; experiment: Pre-emergence herbicide test; conditions: Cyperus, read-out: % plant inhibition (Yens); for inhibition at 11210 g/ha: 11.21 kg/ha; for inhibition at 1120 g/ha: 1.12 kg/ha
# Outline: as §2
SMILES,inhibition at 1120 g/ha [1] [%],inhibition at 1120 g/ha [2] [%],inhibition at 1120 g/ha [3] [%],inhibition at 1120 g/ha [4] [%],inhibition at 1120 g/ha [5] [%],inhibition at 1120 g/ha [6] [%],inhibition at 1120 g/ha [7] [%],inhibition at 1120 g/ha [8] [%],inhibition at 1120 g/ha [9] [%],inhibition at 1120 g/ha [10] [%],inhibition at 1120 g/ha [11] [%],inhibition at 1120 g/ha [12] [%],inhibition at 1120 g/ha [13] [%],inhibition at 1120 g/ha [14] [%],inhibition at 1120 g/ha [15] [%],inhibition at 1120 g/ha [16] [%],inhibition at 1120 g/ha [17] [%],inhibition at 1120 g/ha [18] [%],inhibition at 1120 g/ha [19] [%],inhibition at 1120 g/ha [20] [%],also measured
Cn1nc(-c2ccc(Cl)cc2)c(Cl)c1C(F)(F)F [Compound 82],–,–,–,–,–,–,–,–,–,–,–,–,–,–,–,–,–,–,–,–,inhibition at 11210 g/ha [1]: 30%; inhibition at 11210 g/ha [2]: 30%; inhibition at 11210 g/ha [3]: 60%; inhibition at 11210 g/ha [4]: 0%; inhibition at 11210 g/ha [5]: 40%; inhibition at 11210 g/ha [6]: 20%; inhibition at 11210 g/ha [7]: 0%; inhibition at 11210 g/ha [8]: 90%; inhibition at 11210 g/ha [9]: 20%; inhibition at 11210 g/ha [10]: 10%; inhibition at 11210 g/ha [11]: 100%; inhibition at 11210 g/ha [12]: 80%; inhibition at 11210 g/ha [13]: 100%; inhibition at 11210 g/ha [14]: 60%; inhibition at 11210 g/ha [15]: 100%; inhibition at 11210 g/ha [16]: 100%; inhibition at 11210 g/ha [17]: 40%; inhibition at 11210 g/ha [18]: 100%; inhibition at 11210 g/ha [19]: 100%; inhibition at 11210 g/ha [20]: 30%
COC(=O)Cc1cc(-c2nn(C)c(C(F)(F)F)c2Cl)c(F)cc1Cl [Compound 110],70,30,100,30,40,100,60,80,20,20,20,80,70,0,0,100,50,70,0,0,–
"Cn1nc(-c2cc(C=O)c(Cl)cc2F)c(Cl)c1C(F)(F)F [Compound 133, 2-chloro-5-[4-chloro-1-methyl-5-(trifluoromethyl)-1H-pyrazol-3-yl]-4-fluorobenzaldehyde]",50,40,80,0,50,100,100,100,20,40,80,100,70,20,80,100,40,70,0,20,–
Cn1nc(C(F)(F)F)c(Cl)c1-c1ccc(Cl)cc1F [Compound 79],–,–,–,–,–,–,–,–,–,–,–,–,–,–,–,–,–,–,–,–,inhibition at 11210 g/ha [1]: 20%; inhibition at 11210 g/ha [2]: 90%; inhibition at 11210 g/ha [3]: 100%; inhibition at 11210 g/ha [4]: 60%; inhibition at 11210 g/ha [5]: 30%; inhibition at 11210 g/ha [6]: 100%; inhibition at 11210 g/ha [7]: 20%; inhibition at 11210 g/ha [8]: 60%; inhibition at 11210 g/ha [9]: 20%; inhibition at 11210 g/ha [10]: 10%; inhibition at 11210 g/ha [11]: 80%; inhibition at 11210 g/ha [12]: 100%; inhibition at 11210 g/ha [13]: 100%; inhibition at 11210 g/ha [14]: 90%; inhibition at 11210 g/ha [15]: 80%; inhibition at 11210 g/ha [16]: 100%; inhibition at 11210 g/ha [17]: 30%; inhibition at 11210 g/ha [18]: 100%; inhibition at 11210 g/ha [19]: 80%; inhibition at 11210 g/ha [20]: 20%
Cn1nc(-c2cc(OCc3ccc(Cl)s3)c(Cl)cc2F)c(Cl)c1C(F)(F)F [Compound 252],90,100,100,90,100,100,100,100,100,20,20,10,10,30,60,20,30,40,60,0,–
